Where two headings read alike, the source gives them in different places.
Key:
hMOR = hMOR (Homo sapiens (Human), UniProt P35372); assay: cAMP accumulation assay (inhibition of forskolin-stimulated cAMP) in CHO-K1 cells stably expressing hMOR; type: cell-based
Experimental: Mu opioid agonist activity for selected compounds was determined by the inhibition of forskolin-stimulated cAMP accumulation following MOR activation in CHO-K1 cells stably expressing the hMOR. […] IC50 values were calculated from […] analysis of the concentration-response curves using Graph Pad Prizm.

mu opioid receptor (MOR) = mu opioid receptor (MOR) (Homo sapiens (Human), UniProt P35372); assay: Competitive radioligand binding at MOR ([3H] Naloxone)
Experimental: (§1) Receptor Binding at MOR and NMDA.
(§2) Affinities of various compounds were measured in vitro using competitive radioligand binding assays. Serial dilutions of test compounds were incubated with membranes prepared from CHO-K1 cells expressing the mu opioid receptor (MOR; for opioid receptor binding) or rat forebrain membranes (for NMDA receptor binding). 2 nM [^3H] Naloxone (MOR) or 0.2 nM [^3H] MK801 (NMDA) were used as the specific, competitive radioligands. 10 uM Naloxone (MOR), or 10 uM MK801 (NMDA) was used to determine non-specific binding. Bound radioactivity was measured using a scintillation counter & IC50 values for test compounds were determined by non-linear regression analysis using a one-site competition model (Graph Pad Prizm). Due to each test compound being solubilized in a buffered system for the assay, the results presented herein reflect the free base activity.

NMDA receptor = assay: Competitive radioligand binding at NMDA receptor ([3H] MK801), rat forebrain membranes; settings: 0.2 nM [3H] MK801, reflects free base activity
Experimental: as §1, §2

[1] = hMOR-expressing CHO-K1 cells, 10 μM forskolin, 60 minute incubation, read-out: MOR cAMP IC50
[2] = membranes from CHO-K1 cells expressing MOR, 2 nM [3H] Naloxone, reflects free base activity, read-out: MOR IC50

SMILES | IC50 (hMOR) [nM] | IC50 (mu opioid receptor (MOR)) [nM] | IC50 (NMDA receptor) [nM] | IC50 (hMOR; [1]) [nM] | IC50 (mu opioid receptor (MOR); [2]) [nM]
COCCN1CC[C@]23CC(=O)CC[C@H]2[C@H]1Cc1ccc(O)cc13 [Compound 3, 3-hydroxy-17-(2-methoxyethyl)morphinan-6-one] | 0.1 to 10 | 0.1 to 10 | – | – | –
COCCOCCOCCOCCOCCOCC(=O)Nc1nc2cc3c(cc2s1)C[C@@H]1[C@@H]2CCCC[C@]32CCN1C [Compound 69] | – | – | 1000 to 10000 | 100 to 1000 | 100 to 1000
COCCNC(=O)Oc1ccc2c(c1)[C@@]13CCCC[C@H]1[C@@H](C2)N(C)CC3 [Compound 18, 17-methylmorphinan-3-yl (2-methoxyethyl)carbamate] | 100 to 1000 | 100 to 1000 | 1000 to 10000 | – | –
COCCOCCOCC(=O)Nc1ccc2c(c1)[C@@]13CCCC[C@H]1[C@@H](C2)N(C)CC3 [Compound 33, 2-[2-(2-methoxyethoxy)ethoxy]-N-(17-methylmorphinan-3-yl)acetamide] | 100 to 1000 | 100 to 1000 | > 10000 | – | –
COc1ccccc1Nc1ccc2c(c1)[C@@]13CCCC[C@H]1[C@@H](C2)N(C)CC3 [Compound 30, N-(2-methoxyphenyl)-17-methylmorphinan-3-amine] | 10 to 100 | 10 to 100 | 1000 to 10000 | – | –
COCCOc1ccc2c(c1)[C@]13CCN(C)[C@H](C2)[C@@H]1CCC(=O)C3 [Compound 7, 3-(2-methoxyethoxy)-17-methylmorphinan-6-one] | 100 to 1000 | 100 to 1000 | > 10000 | – | –
COCCOCCN1CC[C@]23CCCC[C@H]2[C@H]1Cc1ccc(OC)cc13 [Compound 12, 3-methoxy-17-[2-(2-methoxyethoxy)ethyl]-morphinan] | – | – | > 10000 | > 1000 | > 1000
CN1CC[C@]23CCCC[C@H]2[C@H]1Cc1ccc(Nc2cccnc2)cc13 [Compound 43, 17-methyl-N-(pyridin-3-yl)morphinan-3-amine] | 0.1 to 10 | 0.1 to 10 | 0.1 to 100 | – | –
COCCOCCOCCO[C@@H]1CC[C@H]2[C@H]3Cc4ccc(O)cc4[C@@]2(CCN3C)C1 [Compound 47, (6β)-6-{2-[2-(2-methoxyethoxy)ethoxy]ethoxy}-17-methylmorphinan-3-ol] | 0.1 to 10 | 0.1 to 10 | – | – | –
CN1CC[C@]23CCCC[C@H]2[C@H]1Cc1ccc(Nc2nccs2)cc13 [Compound 46, 17-methyl-N-(1,3-thiazol-2-yl)morphinan-3-amine] | 10 to 100 | 10 to 100 | 100 to 1000 | – | –
COCCOCCOc1ccc(Nc2ccc3c(c2)[C@@]24CCCC[C@H]2[C@@H](C3)N(C)CC4)cc1 [Compound 36, N-{4-[2-(2-methoxyethoxy)ethoxy]phenyl}-17-methylmorphinan-3-amine] | – | – | 1000 to 10000 | 10 to 100 | 10 to 100
COCCOCCOCCN1CC[C@]23CCCC[C@H]2[C@H]1Cc1ccc(O)cc13 [Compound 16, 17-{2-{2-(2-methoxyethoxy)ethoxy]ethyl}-morphinan-3-ol] | – | – | – | > 1000 | > 1000
COCCOCCNC(=O)c1ccc2c(c1)[C@@]13CCCC[C@H]1[C@@H](C2)N(C)CC3 [Compound 39, N-[2-(2-methoxyethoxy)ethyl]-17-methylmorphinan-3-carboxamide] | – | 100 to 1000 | > 10000 | – | –
COCCOCCC(=O)Nc1ccc2c(c1)[C@@]13CCCC[C@H]1[C@@H](C2)N(C)CC3 [Compound 79, 3-(2-methoxyethoxy)-N-((4bR,8aR,9R)-11-methyl-6,7,8,8a,9,10-hexahydro-5H-9,4b-(epiminoethano)phenanthren-3-yl)propanamide] | – | – | > 10000 | – | > 1000
Oc1ccc2c(c1)[C@@]13CCCC[C@H]1[C@@H](C2)N(CC1CCO1)CC3 (stereo partly shown) [Compound 91, 17-(oxetan-2-ylmethyl)morphinan-3-ol] | – | 0.1 to 10 | 1000 to 10000 | – | –
CN1CC[C@]23CCCC[C@H]2[C@H]1Cc1ccc(NS(C)(=O)=O)cc13 [Compound 37, N-(17-methylmorphinan-3-yl)methanesulfonamide] | – | 100 to 1000 | 1000 to 10000 | – | –
COCCOCCOCCO[C@H]1CC[C@H]2[C@H]3Cc4ccc(OC)cc4[C@@]2(CCN3C)C1 [Compound 1, (6α)-3-methoxy-6-{2-[2-(2-methoxyethoxy)ethoxy]ethoxy}-17-methylmorphinan] | – | – | > 10000 | – | > 1000

SMILES | IC50 (hMOR) [nM] | IC50 (mu opioid receptor (MOR)) [nM] | IC50 (NMDA receptor) [nM] | IC50 (hMOR; [1]) [nM] | IC50 (mu opioid receptor (MOR); [2]) [nM]
COCCOCCN1CC[C@]23CCCC[C@H]2[C@H]1Cc1ccc(N)cc13 [Compound 96, (4bR,8aR,9R)-11-(2-(2-methoxyethoxy)ethyl)-6,7,8,8a,9,10-hexahydro-5H-9,4b-(epiminoethano)phenanthren-3-amine] | – | – | > 10000 | – | > 1000
CN1CC[C@]23CCCC[C@H]2[C@H]1Cc1ccc(NC(=O)OC(C)(C)C)cc13 [Compound 40, tert-butyl (17-methylmorphinan-3-yl)carbamate] | – | 100 to 1000 | 1000 to 10000 | – | –
COCCOCCOCCOCCOCCO[C@H]1CC[C@H]2[C@H]3Cc4ccc(OC)cc4[C@@]2(CCN3C)C1 [Compound 2, (6α)-3-methoxy-17-methyl-6-(2,5,8,11,14-pentaoxahexadecan-16-yloxy)morphinan] | – | – | > 10000 | – | > 1000
COCCOCCOCC(=O)Nc1nc2cc3c(cc2s1)C[C@@H]1[C@@H]2CCCC[C@]32CCN1C [Compound 68, 2-[2-(2-methoxyethoxy)ethoxy]-N— [(4aR,5R,11bR)-14-methyl-2,3,4,4a,5,6-hexahydro-1H-5,11b-(epiminoethano)phenanthro[3,2-d][1,3]thiazol-9-yl]acetamide] | – | – | 1000 to 10000 | – | > 1000
CN1CC[C@]23CCCC[C@H]2[C@H]1Cc1cc2ccc(N)nc2cc13 [Compound 101, (4aR,5R,12bR)-15-methyl-2,3,4,4a,5,6-hexahydro-1H-5,12b-(epiminoethano)naphtho[2,1-g]quinolin-10-amine] | – | – | 1000 to 10000 | – | 10 to 100
COc1ccc(NC(=O)Nc2ccc3c(c2)[C@@]24CCCC[C@H]2[C@@H](C3)N(C)CC4)cc1 [Compound 27, 1-(4-methoxyphenyl)-3-(17-methylmorphinan-3-yl)urea] | – | 10 to 100 | 1000 to 10000 | – | –
COCCOCCOc1ccc(Nc2ccc3c(c2)[C@@]24CCCC[C@H]2[C@@H](C3)N(C)CC4)cn1 [Compound 58, N-{6-[2-(2-methoxyethoxy)ethoxy]pyridin-3-yl}-17-methylmorphinan-3-amine] | – | – | > 10000 | – | 10 to 100
COCCOCCOCCN1CC[C@]23CCCC[C@H]2[C@H]1Cc1ccc(OC)cc13 [Compound 13, 3-methoxy-17-{2-[2-(2-methoxyethoxy)ethoxy]ethyl}-morphinan] | – | – | > 10000 | – | > 1000
COCCOCCN1CC[C@]23CCCC[C@H]2[C@H]1Cc1ccc(O)cc13 [Compound 15, 17-[2-(2-methoxyethoxy)ethyl]morphinan-3-ol] | 10 to 100 | 10 to 100 | > 10000 | – | –
COCCNc1cc2c(cc1[N+](=O)[O-])C[C@@H]1[C@@H]3CCCC[C@]23CCN1C [Compound 76, N-(2-methoxyethyl)-17-methyl-2-nitromorphinan-3-amine] | – | – | > 10000 | – | > 1000
COCCOCCN1CC[C@]23CC(=O)CC[C@H]2[C@H]1Cc1ccc(OC)cc13 [Compound 5, 3-methoxy-17-[2-(2-methoxyethoxy)ethyl]morphinan-6-one] | – | 100 to 1000 | > 10000 | – | –
CN1CC[C@]23CCCC[C@H]2[C@H]1Cc1ccc(-c2cn[nH]c2)cc13 [Compound 44, 17-methyl-3-(1H-pyrazol-4-yl)morphinan] | 10 to 100 | 10 to 100 | 100 to 1000 | – | –
COCCOc1c(O)ccc2c1[C@@]13CCCC[C@H]1[C@@H](C2)N(C)CC3 [Compound 22, 4-(2-methoxyethoxy)-17-methylmorphinan-3-ol] | 10 to 100 | 10 to 100 | – | – | –
CN1CC[C@]23CCCC[C@H]2[C@H]1Cc1cc2nc[nH]c2cc13 [Compound 81, (4aR,5R,11bR)-14-methyl-1,2,3,4,4a,5,6,10-octahydro-5,11b-(epiminoethano)phenanthro[2,3-d]imidazole] | – | 10 to 100 | > 10000 | – | –
CN1CC[C@]23CCCC[C@H]2[C@H]1Cc1ccc(Nc2ccncn2)cc13 [Compound 50, 17-methyl-N-(pyrimidin-4-yl)morphinan-3-amine] | – | 100 to 1000 | 0.1 to 100 | – | –
COCCOCCN1CC[C@]23CCCC[C@H]2[C@H]1Cc1ccc(Nc2cncc(F)c2)cc13 [Compound 104, 17-[2-(2-methoxyethoxy)ethyl]-N-(5-fluoro-pyridin-3-yl)morphinan-3-amine] | – | 10 to 100 | > 10000 | – | –
COc1ccc(Nc2ccc3c(c2)[C@@]24CCCC[C@H]2[C@@H](C3)N(C)CC4)cc1 [Compound 28, N-(4-methoxyphenyl)-17-methylmorphinan-3-amine] | – | 0.1 to 10 | 1000 to 10000 | – | –
